Columns and labels:
[1] = Dynamic (water) vapor sorption (DVS); format: physicochemical
From the text: Dynamic (water) vapor sorption (DVS) is a method well known in the art to monitor the adsorption of water on a solid material. Therefore, DVS is a suitable method to determine the hygroscopic nature of a pharmaceutical active ingredient.
The crystalline form A described in WO 06/060808 (i.e. the free base) and the present composition (as obtained in example 3 further below) are subjected to a DVS experiment; results are shown in FIG. 4 and in the below Table 1. The crystalline composition is less prone to water uptake under humidity, and is easy to formulate compared to the crystalline anhydrous (“free base”) form of Ezetimibe (see Table 1).
Dynamic (water) vapour sorption (DVS) is performed with a Surface Measurement Systems Ltd. DVS-1 water sorption analyzer or with SPS11-100n moisture sorption instrument from Projekt Meβtechnik, Ulm, Germany.
Program: The relative humidity is kept at starting value of 0% for 5 hours, then continuously scanned from 0% to 60%, kept constant at 60% for 4 hours, and then scanned to 0% relative humidity, and kept constant for 4 hours. The scanning change rate of relative humidity is 5% per hour.

LDL levels = conditions: Ezetimibe added to statin therapy; compared with 6% by doubling the dose of statins; cited from earlier work

In the case of `O=C1[C@H](CC[C@H](O)c2ccc(F)cc2)[C@@H](c2ccc(O)cc2)N1c1ccc(F)cc1` [hydrate form], the “relative humidity below which the hydrate begins to lose water” value ([1]; decreasing humidity, FIG. 4) is reported as “about 25%”.

For `O=C1[C@H](CC[C@H](O)c2ccc(F)cc2)[C@@H](c2ccc(O)cc2)N1c1ccc(F)cc1` [1-(4-Fluorophenyl)-3(R)-[3-(4-fluorophenyl)-3(S)-hydroxypropyl]-4(S)-(4-hydroxyphenyl)azetidin-2-one], the “Water vapor sorption: water content after 4 h at 60% r.h.” value ([1]; after 4 h at 60% r.h.) was 4.3%, the “Water vapor sorption: water content after 10 h at 50% r.h.” value ([1]; after 10 h at 50% r.h.) was 4.0% and the water uptake ([1]; at 60% relative humidity, FIG. 4) was “about 4.3%”. The “relative humidity at which hydrate formation starts” value ([1]; increasing ambient humidity, FIG. 4 dashed line) was “about 50%”.

In the case of `O=C1[C@H](CC[C@H](O)c2ccc(F)cc2)[C@@H](c2ccc(O)cc2)N1c1ccc(F)cc1` [Ezetimibe, 1-(4-Fluorophenyl)-3(R)-[3-(4-fluorophenyl)-3(S)-hydroxypropyl]-4(S)-(4-hydroxyphenyl)azetidin-2-one], the “reduction in LDL levels” value (LDL levels) is given as 15%.
